According to paper PMC7505474, “Toll-like receptor 4-mediated inflammation triggered by extracellular IFI16 is enhanced by lipopolysaccharide binding” (PLoS Pathogens, 2020):
Entries after “also recorded” stand apart in the source; their conditions may differ. Where two headings read alike, the source gives them in different places. Blank lines part the entries; values can stand above or below the compound they belong to.

How the values were obtained:
[1] = target: T1, IFI16 (Homo sapiens, UniProt Q16666); experiment: Saturation binding ELISA, full-length IFI16 on immobilized LPS variants / lipid A
T1 construct: obtained with the full-length recombinant IFI16 protein; made in house
T1 sequence (Q16666 1-729 isoform Q16666-2): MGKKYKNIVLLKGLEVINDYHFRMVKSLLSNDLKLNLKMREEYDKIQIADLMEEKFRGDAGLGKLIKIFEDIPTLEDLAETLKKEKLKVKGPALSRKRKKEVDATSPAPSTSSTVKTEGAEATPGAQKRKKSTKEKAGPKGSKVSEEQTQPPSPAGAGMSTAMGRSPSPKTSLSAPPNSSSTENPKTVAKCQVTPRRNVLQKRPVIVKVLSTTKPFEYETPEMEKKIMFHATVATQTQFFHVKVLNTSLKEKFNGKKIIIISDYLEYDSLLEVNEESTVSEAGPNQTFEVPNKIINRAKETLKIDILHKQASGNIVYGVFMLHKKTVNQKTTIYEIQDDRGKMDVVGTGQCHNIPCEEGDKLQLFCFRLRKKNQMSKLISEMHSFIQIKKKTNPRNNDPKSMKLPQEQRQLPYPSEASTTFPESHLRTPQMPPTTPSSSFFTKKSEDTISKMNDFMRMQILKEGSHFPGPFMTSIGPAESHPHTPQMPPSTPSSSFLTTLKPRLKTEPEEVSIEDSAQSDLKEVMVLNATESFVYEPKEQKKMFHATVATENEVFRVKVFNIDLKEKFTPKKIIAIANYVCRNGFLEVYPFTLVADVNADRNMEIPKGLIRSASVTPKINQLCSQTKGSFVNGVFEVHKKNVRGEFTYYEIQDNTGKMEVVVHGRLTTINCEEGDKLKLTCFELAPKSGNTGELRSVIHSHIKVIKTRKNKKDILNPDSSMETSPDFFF
Description: (§1) For saturation binding experiments, microtiter plates (Nunc-Immuno MaxiSorp, Thermo Fischer Scientific) were coated with 2 μg/ml of recombinant IFI16 or 10 μg/ml of BSA or GST in 1X PBS O/N at 4°C. After a washing step with 1X PBS and 0.25% Tween 20 (v/v, Sigma-Aldrich) and blocking step with 1X PBS with 3% BSA and 0.05% Tween 20 for 1 h, increasing concentrations of biotin-labeled LPS-EB, preincubated with 10 μg/ml of polymyxin B (PMB) when specified, were added to the wells and incubated for 1 h at room temperature (RT). Bound proteins were then detected using HRP-conjugated streptavidin. TMB solution (Thermo Fischer Scientific) was used for color development, and OD was measured at 450 nm. Alternatively, microtiter plates were coated with 10 μg/ml of LPS-EB, LPS-PG, LPS-RS, LPS-F583, MPLA, DPLA, or detoxLPS in 1X PBS for 24 h at RT. After washing and blocking for 2 h, increasing concentrations of IFI16, PYRIN, HINA, or HINB were added to the wells, preincubated with 10 μg/ml of PMB when specified, for 2 h. Anti-IFI16 antibodies against the N- or the C-terminus of the protein and HRP-labeled anti-rabbit IgG were then added as primary and secondary antibodies, respectively. The binding was detected as described above.
(§2) For competitive ELISA, microtiter plates were coated with 1 μg/ml LPS-EB in 1X PBS O/N at RT. Successively, a constant amount of 2 μg/ml IFI16 was added to the wells in the presence of increasing concentration of LPS-EB, MPLA or detoxLPS. After incubation for 4 h at RT under gentle agitation, plates were incubated with an anti-IFI16 N-terminal primary antibody and an HRP-conjugated anti-rabbit IgG secondary antibody. The binding was detected as described above. To determine KD constants, saturation binding experiments were performed, and data were fitted to the Langmuir isotherm equation, which describes the equilibrium binding of the ligands. Data are reported as sigmoid concentration-response curves plotted against log concentrations.

[2] = target: T1, IFI16; experiment: Saturation binding ELISA, IFI16-coated plates challenged with biotin-LPS-EB
Description: as §1

[3] = target: T2, PYRIN (Homo sapiens, UniProt Q16666); experiment: Saturation binding ELISA, PYRIN domain on immobilized LPS variants / lipid A
T2 construct: the N-terminal portion containing the pyrin domain (PYRIN); made in house; host or cells: bacteria (pET30a vector)
T2 sequence (Q16666 1-88 limits assumed): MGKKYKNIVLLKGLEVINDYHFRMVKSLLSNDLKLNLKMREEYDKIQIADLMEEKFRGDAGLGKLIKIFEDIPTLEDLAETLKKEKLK
Description: as §1, §2

[4] = target: T3, HINA (Homo sapiens, UniProt Q16666); experiment: Saturation binding ELISA, HINA domain on immobilized LPS variants / lipid A
T3 construct: each of the 200 amino acid-long HIN domains (namely HINA or HINB); made in house; host or cells: bacteria (pET30a vector)
T3 sequence (Q16666 189-389 limits assumed): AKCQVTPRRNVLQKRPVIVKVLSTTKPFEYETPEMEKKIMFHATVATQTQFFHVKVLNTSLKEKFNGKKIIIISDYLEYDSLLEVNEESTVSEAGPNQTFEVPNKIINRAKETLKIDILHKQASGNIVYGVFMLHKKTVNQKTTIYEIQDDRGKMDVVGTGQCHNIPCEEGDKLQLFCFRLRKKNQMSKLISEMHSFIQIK
Description: as §1, §2

[5] = target: T4, HINB (Homo sapiens, UniProt Q16666); experiment: Saturation binding ELISA, HINB domain on immobilized LPS variants / lipid A
T4 construct: each of the 200 amino acid-long HIN domains (namely HINA or HINB); made in house; host or cells: bacteria (pET30a vector)
T4 sequence (Q16666 562-761 limits assumed): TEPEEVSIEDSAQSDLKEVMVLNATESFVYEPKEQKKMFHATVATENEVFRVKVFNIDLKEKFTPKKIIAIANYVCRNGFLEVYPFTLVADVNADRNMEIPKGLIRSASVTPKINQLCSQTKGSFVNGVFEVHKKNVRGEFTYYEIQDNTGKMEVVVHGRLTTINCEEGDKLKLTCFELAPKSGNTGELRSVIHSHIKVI
Description: as §1, §2

[6] = target: T1, IFI16; experiment: SPR, LPS-EB over CM5 IFI16-coated chip; assay type: binding; settings: LPS-EB 3.125–100 nM over immobilized IFI16
Description: Recombinant IFI16 was covalently immobilized onto the surface of sensor CM5 chips via amine coupling as done for TLR4 and TLR4/MD2 complex. IFI16 was diluted to a concentration of 25 μg/ml in 10 mM sodium acetate at pH 4.0. The target capture level of IFI16 was of 1,926.6 response units (RUs). Increasing concentrations of LPS-EB, diluted in HBS-EP+ buffer, were flowed over the CM5 sensor chip coated with IFI16 at a flow rate of 30 μl/min at 25°C with an association time of 180 s and a dissociation phase of 600 s. A single regeneration step with 50 mM NaOH was performed following each analytic cycle. The KDs were evaluated using the BIAcore evaluation software (GE Healthcare) and the reliability of the kinetic constants calculated by assuming a 1:1 binding model supported by the quality assessment indicators values.

[7] = target: T1, IFI16; experiment: Competition ELISA for IFI16 binding to immobilized LPS-EB; settings: 1 μg/ml LPS-EB coated; 2 μg/ml IFI16; competitor 5 to 25 μg/ml
Description: as §2

[8] = target: T5, TLR4/MD2 receptor (Homo sapiens, UniProt O00206+Q9Y6Y9); experiment: SPR, analytes over immobilized TLR4/MD2; assay type: binding
T5 construct: purchased R&D Systems 3146-TM-050/CF
Description: The Biacore X100 (GE Healthcare) instrument was used for real-time binding interaction experiments. Recombinant TLR4 or TLR4/MD2 complex was covalently immobilized onto the surface of sensor CM5 (cat # BR100012, GE Healthcare) chips via amine coupling. TLR4 was diluted to a concentration of 10 μg/ml in 10 mM sodium acetate at pH 4.0, while TLR4/MD2 complex was diluted to a concentration of 20 μg/ml in the same buffer. Both proteins were injected on CM5 chips at a flow rate of 10 μl/min, upon activation of the carboxyl groups on the sensor surface with 7-min injection of a mixture of 0.2 M EDC and 0.05 M NHS. The remaining esters were blocked with 7-min injection of ethanolamine. Taking into account the ligands (TLR4 or TLR4/MD2) and analytes (IFI16, LPS-EB or IFI16/LPS-EB) molecular weights (MW) of 70 or 90 kDa, and 90, 10 or 100 kDa respectively, the appropriate ligand density (RL) on the chip was calculated according to the following equation: RL = (ligand MW/analyte MW) × Rmax × (1/Sm), where Rmax is the maximum binding signal and Sm corresponds to the binding stoichiometry. The target capture level of the TLR4 or TLR4/MD2 was of 596.0 or 1,223.9 response units (RUs), respectively. […] Increasing concentrations of endotoxin-free IFI16, LPS-EB or IFI16/LPS-EB complex were flowed over the CM5 sensor chip coated with TLR4 or TLR4/MD2 at a flow rate of 30 μl/min at 25°C with an association time of 120 s for IFI16 alone and the IFI16/LPS-EB complex, and 180 s for LPS-EB, and a dissociation phase of 180 s for IFI16 and IFI16/LPS-EB complex or 600 s for LPS-EB. A single regeneration step with 50 mM NaOH was performed following each analytic cycle. All the analytes tested were diluted in the HBS-EP+ buffer (GE Healthcare). […]

[9] = 10 μg/ml immobilized LPS variant or lipid A; increasing full-length IFI16; ELISA 450 nm; read-out: Equilibrium dissociation constant (KD), IFI16
[10] = 10 μg/ml immobilized LPS variant or lipid A; increasing PYRIN domain; read-out: Equilibrium dissociation constant (KD), PYRIN
[11] = 10 μg/ml immobilized LPS variant or lipid A; increasing HINA domain; read-out: Equilibrium dissociation constant (KD), HINA
[12] = 10 μg/ml immobilized LPS variant or lipid A; increasing HINB domain; read-out: Equilibrium dissociation constant (KD), HINB

T5 sequence (O00206 24-631 limits assumed): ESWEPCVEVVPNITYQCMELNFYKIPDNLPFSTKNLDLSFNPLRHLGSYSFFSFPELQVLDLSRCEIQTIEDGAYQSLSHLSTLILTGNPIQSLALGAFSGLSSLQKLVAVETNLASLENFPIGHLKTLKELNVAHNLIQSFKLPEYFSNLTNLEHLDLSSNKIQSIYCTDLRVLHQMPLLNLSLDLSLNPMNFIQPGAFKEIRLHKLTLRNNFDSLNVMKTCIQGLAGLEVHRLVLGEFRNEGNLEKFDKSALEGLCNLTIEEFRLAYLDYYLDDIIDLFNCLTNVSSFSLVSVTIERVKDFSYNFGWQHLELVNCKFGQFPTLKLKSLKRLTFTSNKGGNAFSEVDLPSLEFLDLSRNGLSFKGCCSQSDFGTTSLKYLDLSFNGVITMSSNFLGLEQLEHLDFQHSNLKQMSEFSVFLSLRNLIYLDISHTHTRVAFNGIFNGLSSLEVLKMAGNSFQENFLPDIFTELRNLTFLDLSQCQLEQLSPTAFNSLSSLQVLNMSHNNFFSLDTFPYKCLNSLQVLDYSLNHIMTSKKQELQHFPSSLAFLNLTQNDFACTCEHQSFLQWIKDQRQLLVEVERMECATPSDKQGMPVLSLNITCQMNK
T5 sequence (Q9Y6Y9 17-160 limits assumed): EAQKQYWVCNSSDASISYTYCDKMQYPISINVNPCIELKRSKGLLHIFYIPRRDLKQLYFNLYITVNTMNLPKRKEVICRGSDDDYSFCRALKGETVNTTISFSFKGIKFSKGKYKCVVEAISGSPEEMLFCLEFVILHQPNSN

Compound: polymyxin B [PMB]
Effect of PMB pre-treatment of immobilized LPS / lipid A on IFI16 binding ([1]; 10 μg/ml PMB): completely abolished IFI16 binding; also recorded: no signal was detected
Effect of PMB pre-incubated with biotin-LPS-EB on IFI16/LPS binding ([2]; 10 μg/ml PMB, IFI16-coated wells): completely prevented IFI16 from binding to LPS

Compound: LPS from Escherichia coli F583 [LPS-F583]
Kd [1, 9]: 4.3 nM

Compound: LPS from Escherichia coli O111:B4 [LPS-EB]
Kd [1, 9]: 4.2 nM
Kd [3, 10]: 116 nM
Kd [4, 11]: 85.3 nM
Kd [5, 12]: 3.3 nM
kinetic association constant (Ka) [6]: 11300 M⁻¹ s⁻¹
kinetic dissociation constant (Kd) ([6]; rate constant): 0.00194 s⁻¹
Competition for IFI16 binding to immobilized LPS-EB [7]: reduced IFI16 binding to immobilized LPS in a concentration-dependent manner
dissociation rate constant (Kd) [8]: 1e-06 s⁻¹
Ka ([8]; association rate constant): 6840 M⁻¹ s⁻¹
dissociation rate constant (koff) ([8]; dissociation rate constant): 1e-06 s⁻¹
Kd ([8]; equilibrium dissociation constant, read-out: KD): 0.147 nM
Rmax ([8]; maximum response): 745.00 RU
Kd ([8]; text / Fig 8C legend, read-out: equilibrium dissociation constant (KD)): 0.15 nM

Compound: LPS from Porphyromonas gingivalis [LPS-PG]
Kd [1, 9]: 12 nM
Kd [3, 10]: 46.9 nM
Kd [4, 11]: 84 nM
Kd [5, 12]: 1.6 nM

Compound: LPS from Rhodobacter sphaeroides [LPS-RS]
Kd [1, 9]: 19.3 nM

Compound: biotin-labeled LPS from Escherichia coli O111:B4 [biotin-LPS-EB]
biotin-LPS-EB concentration reaching saturation of solid-phase IFI16 ([2]; 2 μg/ml IFI16 coated): 100,000 ng/ml

Kd [1, 9]: 1.2 nM
Kd [3, 10]: 47.2 nM
Kd [4, 11]: 94.1 nM
Kd [5, 12]: 2.7 nM
Compound: CCCCCCCCCCCCCC(=O)O[C@H](CCCCCCCCCCC)CC(=O)O[C@@H]1[C@@H](NC(=O)C[C@@H](CCCCCCCCCCC)OC(=O)CCCCCCCCCCC)[C@H](OC[C@H]2OC(O)[C@H](NC(=O)C[C@H](O)CCCCCCCCCCC)[C@@H](OC(=O)C[C@H](O)CCCCCCCCCCC)[C@@H]2O)O[C@H](CO)[C@H]1OP(=O)(O)O (some centres unmarked) [MPLA, monophosphoryl lipid A from Escherichia coli F583]
Competition for IFI16 binding to immobilized LPS-EB [7]: much stronger reduction in IFI16 binding to LPS

Compound: CCCCCCCCCCCCCC(=O)O[C@H](CCCCCCCCCCC)CC(=O)O[C@@H]1[C@@H](NC(=O)C[C@@H](CCCCCCCCCCC)OC(=O)CCCCCCCCCCC)[C@H](OC[C@H]2O[C@H](OP(=O)(O)O)[C@H](NC(=O)C[C@H](O)CCCCCCCCCCC)[C@@H](OC(=O)C[C@H](O)CCCCCCCCCCC)[C@@H]2O)O[C@H](CO)[C@H]1OP(=O)(O)O [DPLA, diphosphoryl lipid A from Escherichia coli F583]
Kd ([1]; read-out: Equilibrium dissociation constant (KD), IFI16; 10 μg/ml immobilized LPS variant or lipid A; increasing full-length IFI16; ELISA 450 nm): 0.9 nM
Kd ([3]; read-out: Equilibrium dissociation constant (KD), PYRIN; 10 μg/ml immobilized LPS variant or lipid A; increasing PYRIN domain): 47.5 nM
Kd ([4]; read-out: Equilibrium dissociation constant (KD), HINA; 10 μg/ml immobilized LPS variant or lipid A; increasing HINA domain): 67.7 nM
Kd ([5]; read-out: Equilibrium dissociation constant (KD), HINB; 10 μg/ml immobilized LPS variant or lipid A; increasing HINB domain): 2.8 nM

Compound: detoxified LPS from Escherichia coli O111:B4 [detoxLPS]
Competition for IFI16 binding to immobilized LPS-EB [7]: did not interfere
